Source: PubChem BioAssay (NCI)
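Where inhibition never reached the appropriate level, the endpoint shown equals the highest concentration tested. Otherwise, values were interpolated linearly from a five-concentration, 48-hour dose response in 96-well plates. Abbreviation: GI50, concentration required for 50% inhibition of growth. TGI marks complete inhibition of growth.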

What was measured:
Experiment in all cases: growth of human tumour cells (NCI), 48 h
M14 melanoma = test system: M14 melanoma
MCF7 breast = test system: MCF7 breast
HS 578T breast = test system: HS 578T breast
HCC-2998 colon = test system: HCC-2998 colon
SR leukemia = test system: SR leukemia
NCI-H23 lung = test system: NCI-H23 lung
BT-549 breast = test system: BT-549 breast
NCI-H460 lung = test system: NCI-H460 lung
LOX IMVI melanoma = test system: LOX IMVI melanoma
DU-145 prostate = test system: DU-145 prostate
TK-10 renal = test system: TK-10 renal
OVCAR-4 ovarian = test system: OVCAR-4 ovarian
ACHN renal = test system: ACHN renal
SW-620 colon = test system: SW-620 colon
RXF 393 renal = test system: RXF 393 renal
HCT-116 colon = test system: HCT-116 colon
COLO 205 colon = test system: COLO 205 colon
OVCAR-8 ovarian = test system: OVCAR-8 ovarian
RPMI-8226 leukemia = test system: RPMI-8226 leukemia
UACC-257 melanoma = test system: UACC-257 melanoma
A549 NSCLC = test system: A549 NSCLC
MOLT-4 leukemia = test system: MOLT-4 leukemia
SNB-75 CNS = test system: SNB-75 CNS
SK-MEL-5 melanoma = test system: SK-MEL-5 melanoma
SN12C renal = test system: SN12C renal
T-47D breast = test system: T-47D breast
HT29 colon = test system: HT29 colon
MDA-MB-231 breast = test system: MDA-MB-231 breast
OVCAR-5 ovarian = test system: OVCAR-5 ovarian
UO-31 renal = test system: UO-31 renal
HL-60(TB) leukemia = test system: HL-60(TB) leukemia
A498 renal = test system: A498 renal
SK-MEL-28 melanoma = test system: SK-MEL-28 melanoma
CAKI-1 renal = test system: CAKI-1 renal
SF-539 CNS = test system: SF-539 CNS
MALME-3M melanoma = test system: MALME-3M melanoma
CCRF-CEM leukemia = test system: CCRF-CEM leukemia
SF-268 CNS = test system: SF-268 CNS
NCI-H522 lung = test system: NCI-H522 lung
NCI/ADR-RES ovarian = test system: NCI/ADR-RES ovarian
SF-295 CNS = test system: SF-295 CNS
HOP-92 NSCLC = test system: HOP-92 NSCLC
IGROV1 ovarian = test system: IGROV1 ovarian
KM12 colon = test system: KM12 colon
UACC-62 melanoma = test system: UACC-62 melanoma
786-0 renal = test system: 786-0 renal
MDA-MB-435 = test system: MDA-MB-435
SNB-19 CNS = test system: SNB-19 CNS
EKVX NSCLC = test system: EKVX NSCLC
U251 CNS = test system: U251 CNS
PC-3 prostate = test system: PC-3 prostate
OVCAR-3 ovarian = test system: OVCAR-3 ovarian
HOP-62 NSCLC = test system: HOP-62 NSCLC
K-562 leukemia = test system: K-562 leukemia

Clc1cccc(/C=N/Nc2nc(N/N=C/c3cccc(Cl)c3)nc(N3CCOCC3)n2)c1
GI50 (M14 melanoma): 3.08 µM | TGI (M14 melanoma): > 100 µM | GI50 (MCF7 breast): 2.47 µM | TGI (MCF7 breast): > 100 µM | GI50 (HS 578T breast): 3.76 µM | TGI (HS 578T breast): > 100 µM | GI50 (HCC-2998 colon): 2.73 µM | TGI (HCC-2998 colon): > 100 µM | GI50 (SR leukemia): 0.329 µM | TGI (SR leukemia): 2.58 µM | GI50 (NCI-H23 lung): 4.05 µM | TGI (NCI-H23 lung): > 100 µM | GI50 (BT-549 breast): 3.22 µM | TGI (BT-549 breast): > 100 µM | GI50 (NCI-H460 lung): 3.47 µM | TGI (NCI-H460 lung): > 100 µM | GI50 (LOX IMVI melanoma): 2.99 µM | TGI (LOX IMVI melanoma): > 100 µM | GI50 (DU-145 prostate): 2.62 µM | TGI (DU-145 prostate): > 100 µM | GI50 (TK-10 renal): 5.89 µM | TGI (TK-10 renal): > 100 µM | GI50 (OVCAR-4 ovarian): 5.82 µM | TGI (OVCAR-4 ovarian): > 100 µM | GI50 (ACHN renal): 2.11 µM | TGI (ACHN renal): > 100 µM | GI50 (SW-620 colon): 1.78 µM | TGI (SW-620 colon): > 100 µM | GI50 (RXF 393 renal): 1 µM | TGI (RXF 393 renal): 3.51 µM | GI50 (HCT-116 colon): 1.27 µM | TGI (HCT-116 colon): > 100 µM | GI50 (COLO 205 colon): 1.23 µM | TGI (COLO 205 colon): > 100 µM | GI50 (OVCAR-8 ovarian): 4.58 µM | TGI (OVCAR-8 ovarian): > 100 µM | GI50 (RPMI-8226 leukemia): 1.9 µM | TGI (RPMI-8226 leukemia): 6.79 µM | GI50 (UACC-257 melanoma): 2.47 µM | TGI (UACC-257 melanoma): 6.52 µM | GI50 (A549 NSCLC): 3.57 µM | TGI (A549 NSCLC): > 100 µM | GI50 (MOLT-4 leukemia): 1.49 µM | TGI (MOLT-4 leukemia): 4.4 µM | GI50 (SNB-75 CNS): 3.33 µM | TGI (SNB-75 CNS): > 100 µM | GI50 (SK-MEL-5 melanoma): 1.72 µM | TGI (SK-MEL-5 melanoma): 3.44 µM | GI50 (SN12C renal): 4.99 µM | TGI (SN12C renal): > 100 µM | GI50 (T-47D breast): 3.54 µM | TGI (T-47D breast): > 100 µM | GI50 (HT29 colon): 1.34 µM | TGI (HT29 colon): > 100 µM | GI50 (MDA-MB-231 breast): 9.16 µM | TGI (MDA-MB-231 breast): > 100 µM | GI50 (OVCAR-5 ovarian): > 100 µM | TGI (OVCAR-5 ovarian): > 100 µM | GI50 (UO-31 renal): 1.61 µM | TGI (UO-31 renal): > 100 µM | GI50 (HL-60(TB) leukemia): 0.505 µM | TGI (HL-60(TB) leukemia): 3.08 µM | GI50 (A498 renal): 1.67 µM | TGI (A498 renal): 5.65 µM | GI50 (SK-MEL-28 melanoma): 2.86 µM | TGI (SK-MEL-28 melanoma): 7.74 µM | GI50 (CAKI-1 renal): 2.77 µM | TGI (CAKI-1 renal): > 100 µM | GI50 (SF-539 CNS): 5.39 µM | TGI (SF-539 CNS): > 100 µM | GI50 (MALME-3M melanoma): 2.86 µM | TGI (MALME-3M melanoma): 5.57 µM | GI50 (CCRF-CEM leukemia): 1.34 µM | TGI (CCRF-CEM leukemia): 6.6 µM | GI50 (SF-268 CNS): 5.1 µM | TGI (SF-268 CNS): > 100 µM | GI50 (NCI-H522 lung): 3.21 µM | TGI (NCI-H522 lung): > 100 µM | GI50 (NCI/ADR-RES ovarian): 3.39 µM | TGI (NCI/ADR-RES ovarian): > 100 µM | GI50 (SF-295 CNS): 4.13 µM | TGI (SF-295 CNS): > 100 µM | GI50 (HOP-92 NSCLC): 2.17 µM | TGI (HOP-92 NSCLC): > 100 µM | GI50 (IGROV1 ovarian): 4.61 µM | TGI (IGROV1 ovarian): > 100 µM | GI50 (KM12 colon): 3.61 µM | TGI (KM12 colon): > 100 µM | GI50 (UACC-62 melanoma): 4.54 µM | TGI (UACC-62 melanoma): > 100 µM | GI50 (786-0 renal): 1.07 µM | TGI (786-0 renal): 4.12 µM | GI50 (MDA-MB-435): 4.24 µM | TGI (MDA-MB-435): > 100 µM | GI50 (SNB-19 CNS): 37 µM | TGI (SNB-19 CNS): > 100 µM | GI50 (EKVX NSCLC): 4.23 µM | TGI (EKVX NSCLC): > 100 µM | GI50 (U251 CNS): 3.49 µM | TGI (U251 CNS): > 100 µM | GI50 (PC-3 prostate): 2.91 µM | TGI (PC-3 prostate): > 100 µM | GI50 (OVCAR-3 ovarian): 2.87 µM | TGI (OVCAR-3 ovarian): 59.9 µM | GI50 (HOP-62 NSCLC): 4.67 µM | TGI (HOP-62 NSCLC): > 100 µM | GI50 (K-562 leukemia): 0.699 µM | TGI (K-562 leukemia): 7.65 µM
